Reference: patent US20240077481A1, “IMPROVED TREATMENT METHODS USING DMDS FOR THE TREATMENT OF AUTOIMMUNE DISEASES, AND BIOMARKER FOR PREDICTING AND/OR OPTIMISING SAID TREATMENT METHODS” (ARES TRADING S.A., priority 2021, published 2024)

Assays:
CD19^+ cell = details: Montalban et al., 2016; cited from earlier work
CD8^+ T cell = details: followed by a period of repopulation (Wiendl et al., 2020); cited from earlier work
B cell = details: followed by a period of repopulation (Wiendl et al., 2020); cited from earlier work
CD4^+ T cell = details: followed by a period of repopulation (Wiendl et al., 2020); cited from earlier work
plasma cells signatures = assay: Immune deconvolution signatures, CLARITY phase 3, 96 weeks; format: in vivo, human; details: 96 weeks after first cladribine treatment
Source text: Plasma cell signatures have weak positive, but significant, correlation with: MACT2 (Mean Active T2 Lesions), CACT2 (Cumulative Active T2 lesions), MRCULES (Mean CU Lesions), MNT1GEL (Mean New T1 Gd+ Lesions). The results are illustrated in FIG. 9.

plasmablast/cells = assay: Sustained decrease of plasmablast/cells under Cladribine treatment; format: in vivo, human; details: month 3-12
Source text: According to the instant invention, it is preferably shown that treatment of said autoimmune diseases with DMDs, preferably the treatment of MS with said DMDs and especially treatment of MS with Cladribine, in an individual induces a sustained decrease of pathological memory B cells and plasmablast/cells (>−70% and >−50% from baseline respectively) from month 1-12 and month 3-12 respectively. Repopulation of these cells resulting in a increase of numbers of memory B cells and Plasma cells to <−40% and −20% respectively will illustrate a loss of efficacy serving as a retreatment marker.

Memory B cells = assay: MAGNIFY-MS peripheral blood immunophenotyping (flow cytometry); format: in vivo, human; details: month 1-12
[1] = system: plasma cell numbers in the blood; assay: Plasma cell response in MS patients vaccinated with Shingrix before cladribine treatment; format: in vivo, human; details: MS patients vaccinated twice with Shingrix, second dose 1 week before start of cladribine
Source text: According to the instant invention, it is preferably shown that treatment of treatment of MS with Cladribine, in an individual, reduces short lived plasmablasts and CD38^+ plasma cells and the direct effect on these plasma cell subpopulations is further supported by blood data from MS patients vaccinated twice with the Shingrix vaccine before the start of treatment with the DMD Cladribine. After the second Shingrix dose given 1 week before said start of cladribine treatment, the patient raised an acute plasma cell response, and increased plasma cell numbers in the blood to the MS patient were reduced by cladribine treatment (cite vaccination patent). These findings indicate that Cladribine is able to directly affect and reduce plasmablasts and CD38+ plasma cells which are associated with disease pathology by means of autoantibody production and direct cellular toxicity, especially when occurring within the cerebrospinal fluid. What we found in MS is also important for other diseases. There are a variety of AI & Neuroinflammatory diseases where potentially plasma cells/plasmablasts are involved in the disease activity and disease course which we deem to benefit from a treatment directly acting on plasma cells, preferably cladribine treatment. […]

[2] = CLARITY extension, five patient groups, 3.5 mg/kg or placebo after CLARITY; cited from earlier work
CD24hiCD38hi TrB cells = details: those with NMOSDs; cited from earlier work
CD27+ memory B cells = details: those with NMOSDs; cited from earlier work

## ocrelizumab: anti-CD20 therapy targeting B cells
CD19^+ cell
  Time of reductions in CD19^+ cell counts after treatment (as early as): 2 weeks

## Alemtuzumab: other disease-modifying therapy compared in the discussion
CD8^+ T cell
  CD8^+ T cell counts: decrease
B cell
  B cell counts: decrease
CD4^+ T cell
  CD4^+ T cell counts: decrease

## Nc1nc(Cl)nc2c1ncn2[C@H]1C[C@H](O)[C@@H](CO)O1 [Cladribine]
Plasma cells signatures
  Ratio in plasma cells signatures vs untreated control: decreased ratio
plasmablast/cells
  Sustained decrease of plasmablast/cells from baseline: > −50%
Memory B cells
  Sustained decrease of pathological memory B cells from baseline: > −70%
[1]
  Increased plasma cell numbers in the blood after second Shingrix dose: reduced
[2]
  Relapse rates and disability between all groups: not significantly different

## Rituximab: anti-CD20 therapy targeting B cells
CD24hiCD38hi TrB cells
  number of CD24hiCD38hi TrB cells: increased
CD27+ memory B cells
  number of CD27+ memory B cells: lowered
